# Data from patent publication US20100119483A1, “PEPTIDE VIRAL ENTRY INHIBITORS” (Schering Corporation, priority 2004, published 2010).
# Several values for one entry are separate records, joined by “and”; a condition that tells them apart may be missing. Equal values may be shown once. Ends that are not written are not given here.
# Legend:
# [1] = system: amphotropic murine leukemia virus; experiment: AMLV pseudotyped virus entry counter-screen, same infection protocol; assay type: cell-based; details: for AMLVpp % inh: peptide library screen, cell entry inhibition vs uninhibited control; for luciferase units, AMLV entry: duplicates
# Experimental: Infection of hepatoma cell lines with HCV pseudotype particles and screen for inhibitory peptides. The hepatoma cells, Huh7, was seeded at 8000 cells in 90 ul medium in 96-well plate. In the case of the inhibitor screen, the inhibitor was incubated with cells for one hour at 37° C. and then 50 ul viral supernatant was added to the cells 24 hours after seeding. The viral stock was pre-tittered and diluted to yield approximately 10,000 to 20,000 RLU. The cells were incubated at 37° C. with 5% CO2 for additional 72 hours and were harvested for luciferase assay. Peptide stocks were prepared in 100% DMSO at 10 mg/ml and were first screened at 100 ug/ml and then a dose responsive curve was generated with 10 points 3-fold titration starting from 100 ug/ml.
# The specificity of the peptides were counter-screened with AMLV and HIV pseudotyped viruses using the same infection protocol.
# [2] = system: HCV pseudoparticles; experiment: HCV pseudoparticle (HCVpp) entry assay in Huh7 hepatoma cells, luciferase readout; assay type: cell-based, hepatitis C virus; details: for HCVpp % inh: peptide library screen, first screened at 100 ug/ml, cell entry inhibition vs uninhibited control; for luciferase units, HCV entry / viral entry as a percentage of the uninhibited control: duplicates; for viral entry as a percentage of the uninhibited control: HCV entry; for % of control at ~30 uM: percentage of hepatitis C virus cellular entry at 30 μM peptide vs uninhibited control
# Outline: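 Pseudoparticles carrying HCV E1/E2 on an HIV luciferase backbone were produced in 293T cells; peptide was pre-incubated 1 h at 37 °C with Huh7 cells, then virus added and luciferase read after 72 h. Dose-response used 10-point 3-fold titration from 100 ug/ml; envelope-less particles controlled non-specific entry.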
# [3] = 0.01371742 uM of peptide (three lines)
substance,measurement,setting,value
S-T-T-E-W-Q-V-L-P-C-S-F-T-T-L-P [SEQ ID NO: 71],AMLVpp % inh,[1],18%
same,HCVpp % inh,[2],44%
L-F-S-P-G-S-S-Q-K-I-Q-L-V-N-T-N [SEQ ID NO: 33],AMLVpp % inh,[1],−49%
same,HCVpp % inh,[2],61%
A-I-K-W-E-Y-V-L-L-L-F-L-L [SEQ ID NO: 81],"luciferase units, AMLV entry",[1]; [3],46029 luciferase units and 39655 luciferase units and 41740 luciferase units and 42548 luciferase units and 45150 luciferase units and 45203 luciferase units
same,"luciferase units, AMLV entry",[1]; 0.04115226 uM of peptide,40104 luciferase units and 51496 luciferase units
same,"luciferase units, AMLV entry",[1]; 0.1234568 uM of peptide,51789 luciferase units and 49401 luciferase units
same,"luciferase units, AMLV entry",[1]; 0.3703704 uM of peptide,48861 luciferase units and 55221 luciferase units
same,"luciferase units, AMLV entry",[1]; 1.111111 uM of peptide,54439 luciferase units and 53032 luciferase units
same,"luciferase units, AMLV entry",[1]; 3.333333 uM of peptide,62658 luciferase units and 51388 luciferase units
same,"luciferase units, AMLV entry",[1]; 30 uM of peptide,86600 luciferase units and 64937 luciferase units
same,"% control (HCVpp entry), glycine scanning","[2]; 0.00003 uM of peptide, two values per peptide and row",86 % control and 77 % control and 104 % control and 134 % control
same,"% control (HCVpp entry), glycine scanning","[2]; 0.0001 uM of peptide, two values per peptide",103 % control and 79 % control
same,"% control (HCVpp entry), glycine scanning","[2]; 0.0003 uM of peptide, two values per peptide",90 % control and 105 % control
same,"% control (HCVpp entry), glycine scanning","[2]; 0.001 uM of peptide, two values per peptide",94 % control and 114 % control
same,"% control (HCVpp entry), glycine scanning","[2]; 0.003 uM of peptide, two values per peptide",82 % control and 66 % control
same,"% control (HCVpp entry), glycine scanning","[2]; 0.01 uM of peptide, two values per peptide",70 % control and 71 % control
same,"% control (HCVpp entry), glycine scanning","[2]; 0.03 uM of peptide, two values per peptide",51 % control and 38 % control
same,"luciferase units, HCV entry",[2]; 0.04115226 uM of peptide,3138 luciferase units and 5487 luciferase units
same,"luciferase units, HCV entry",[2]; 0.1234568 uM of peptide,1665 luciferase units and 1759 luciferase units
same,"% control (HCVpp entry), glycine scanning","[2]; 0.3 uM of peptide, two values per peptide",39 % control and 31 % control
same,"luciferase units, HCV entry",[2]; 0.3703704 uM of peptide,2133 luciferase units and 2617 luciferase units
same,"luciferase units, HCV entry",[2]; 1.111111 uM of peptide,2065 luciferase units and 2449 luciferase units
same,"luciferase units, HCV entry",[2]; 10 uM of peptide,2584 luciferase units and 3853 luciferase units
same,"% control (HCVpp entry), glycine scanning","[2]; 10 uM of peptide, two values per peptide",22 % control and 34 % control
same,"luciferase units, HCV entry",[2]; 30 uM of peptide,990 luciferase units and 667 luciferase units
same,"% control (HCVpp entry), glycine scanning","[2]; 30 uM of peptide, two values per peptide",30 % control and 26 % control
same,viral entry as a percentage of the uninhibited control,"[2]; 0.1 nM of peptide (three lines), 0.0001 µM",79% and 103% and 77% and 86% and 134% and 104%
same,viral entry as a percentage of the uninhibited control,"[2]; 0.3 nM of peptide, 0.0003 µM",105% and 90%
same,viral entry as a percentage of the uninhibited control,"[2]; 1 nM of peptide, 0.001 µM",114% and 94%
same,viral entry as a percentage of the uninhibited control,"[2]; 3 nM of peptide, 0.003 µM",66% and 82%
same,viral entry as a percentage of the uninhibited control,"[2]; 10 nM of peptide, 0.01 µM",71% and 70%
same,viral entry as a percentage of the uninhibited control,"[2]; 30 nM of peptide, 0.03 µM",38% and 51%
same,viral entry as a percentage of the uninhibited control,"[2]; 300 nM of peptide, 0.3 µM",31% and 39%
same,viral entry as a percentage of the uninhibited control,"[2]; 10000 nM of peptide, 10 µM",34% and 22%
same,viral entry as a percentage of the uninhibited control,"[2]; 30000 nM of peptide, 30 µM",26% and 30%
same,% of control at ~30 uM,[2],17%
I-M-H-T-P-G-C-V-P-C-V-R-E-N-N-S [SEQ ID NO: 7],AMLVpp % inh,[1],−4%
same,HCVpp % inh,[2],3%
T-R-G-E-R-C-N-L-E-D-R-D-R-S-E-L [SEQ ID NO: 68],AMLVpp % inh,[1],−7%
same,HCVpp % inh,[2],13%
A-I-K-W-E-Y-V-L-L-L-F-L-L [SEQ ID NO: 100],"luciferase units, AMLV entry",[1]; 0.04115226 uM of peptide,39784 luciferase units and 45324 luciferase units
same,"luciferase units, AMLV entry",[1]; 0.1234568 uM of peptide,46954 luciferase units and 44234 luciferase units
same,"luciferase units, AMLV entry",[1]; 0.3703704 uM of peptide,42008 luciferase units and 39907 luciferase units
same,"luciferase units, AMLV entry",[1]; 1.111111 uM of peptide,45723 luciferase units and 43633 luciferase units
same,"luciferase units, AMLV entry",[1]; 3.333333 uM of peptide,70934 luciferase units and 59407 luciferase units
same,"luciferase units, AMLV entry",[1]; 10 uM of peptide,135633 luciferase units and 74847 luciferase units
same,"luciferase units, AMLV entry",[1]; 30 uM of peptide,76883 luciferase units and 56072 luciferase units
same,"% control (HCVpp entry), lysine scanning","[2]; 0.1 nM of peptide (printed for three rows), two values per peptide and row",110 % control and 85 % control and 115 % control and 83 % control and 92 % control and 111 % control
same,"% control (HCVpp entry), lysine scanning","[2]; 0.3 nM of peptide, two values per peptide",88 % control and 75 % control
same,"% control (HCVpp entry), lysine scanning","[2]; 1 nM of peptide, two values per peptide",76 % control and 68 % control
same,"% control (HCVpp entry), lysine scanning","[2]; 3 nM of peptide, two values per peptide",61 % control and 83 % control
same,"% control (HCVpp entry), lysine scanning","[2]; 10 nM of peptide, two values per peptide",62 % control and 58 % control
same,"luciferase units, HCV entry",[2]; [3],9526 luciferase units and 11368 luciferase units and 13637 luciferase units and 13231 luciferase units and 14358 luciferase units and 15831 luciferase units
same,"% control (HCVpp entry), lysine scanning","[2]; 30 nM of peptide, two values per peptide",53 % control and 44 % control
same,"luciferase units, HCV entry",[2]; 0.04115226 uM of peptide,7066 luciferase units and 7585 luciferase units
same,"% control (HCVpp entry), lysine scanning","[2]; 100 nM of peptide, two values per peptide",31 % control and 19 % control
same,"luciferase units, HCV entry",[2]; 0.1234568 uM of peptide,4241 luciferase units and 3590 luciferase units
same,"% control (HCVpp entry), lysine scanning","[2]; 300 nM of peptide, two values per peptide",32 % control and 29 % control
same,"luciferase units, HCV entry",[2]; 0.3703704 uM of peptide,4161 luciferase units and 2767 luciferase units
same,"luciferase units, HCV entry",[2]; 1.111111 uM of peptide,3041 luciferase units and 2870 luciferase units
same,"luciferase units, HCV entry",[2]; 3.333333 uM of peptide,4131 luciferase units and 3158 luciferase units
same,"luciferase units, HCV entry",[2]; 10 uM of peptide,1538 luciferase units and 1360 luciferase units
same,"luciferase units, HCV entry",[2]; 30 uM of peptide,1262 luciferase units and 1073 luciferase units
same,% of control at ~30 uM,[2],6%
I-F-K-V-R-M-Y-V-G-G-V-E-H-R-L-E (IFKVRMYVGGVEHRLE; HCV peptide) [SEQ ID NO: 65],AMLVpp % inh,[1],−62%
same,HCVpp % inh,[2],19%
P-C-T-V-N-F-T-I-F-K-V-R-M-Y-V-G (PCTVNFTIFKVRMYVG; HCV peptide) [SEQ ID NO: 64],AMLVpp % inh,[1],−30%
same,HCVpp % inh,[2],−2%
N-S-T-G-F-T-K-T-C-G-C-P-P-C-N-I [SEQ ID NO: 55],AMLVpp % inh,[1],3%
same,HCVpp % inh,[2],23%
E-A-T-Y-T-K-C-G-S-G-P-W-L-T-P-R (EATYTKCGSGPWLTPR; HCV peptide) [SEQ ID NO: 60],AMLVpp % inh,[1],17%
same,HCVpp % inh,[2],13%
Q-K-I-Q-L-V-N-T-N-G-S-W-H-I-N-R (QKIQLVNTNGSWHINR; HCV peptide) [SEQ ID NO: 34],AMLVpp % inh,[1],13%
same,HCVpp % inh,[2],6%
S-W-G-E-N-E-T-D-V-L-L-L-N-N-T-R [SEQ ID NO: 51],AMLVpp % inh,[1],34%
same,HCVpp % inh,[2],23%
D-C-S-N-A-S-I-V-Y-E-A-A-D-M-I-M [SEQ ID NO: 5],AMLVpp % inh,[1],−2%
same,HCVpp % inh,[2],−4%
D-V-L-L-L-N-N-T-R-P-P-Q-G-N-W-F [SEQ ID NO: 52],AMLVpp % inh,[1],16%
same,HCVpp % inh,[2],10%
N-D-S-L-N-T-G-F-L-A-A-L-F-Y-V-H [SEQ ID NO: 37],AMLVpp % inh,[1],15%
same,HCVpp % inh,[2],14%
L-F-T-F-S-P-R-R-H-E-T-V-Q-D-C-N [SEQ ID NO: 17],AMLVpp % inh,[1],16%
same,HCVpp % inh,[2],9%
A-A-L-C-S-A-M-Y-V-G-D-L-C-G-S-V [SEQ ID NO: 14],AMLVpp % inh,[1],−42%
same,HCVpp % inh,[2],39%
L-E-D-R-D-R-S-E-L-S-P-L-L-L-S-T (LEDRDRSELSPLLLST; not fully specified (C-terminus); printed as L-E-D-R-D-R-S-E-L-S-P-L-L-L-S-T) [SEQ ID NO: 69],AMLVpp % inh,[1],1%
same,HCVpp % inh,[2],−15%
N-W-S-P-T-A-A-L-V-V-S-Q-L-L-R-I [SEQ ID NO: 22],AMLVpp % inh,[1],−11%
same,HCVpp % inh,[2],54%
V-Y-E-A-A-D-M-I-M-H-T-P-G-C-V-P [SEQ ID NO: 6],AMLVpp % inh,[1],10%
same,HCVpp % inh,[2],−13%
G-C-P-E-R-M-A-S-C-S-P-I-D-A-F-A [SEQ ID NO: 40],AMLVpp % inh,[1],−4%
same,HCVpp % inh,[2],35%
V-D-G-G-T-Y-V-T-G-G-T-M-A-K-N-T [SEQ ID NO: 30],AMLVpp % inh,[1],−9%
same,HCVpp % inh,[2],2%
N-I-G-G-I-G-N-K-T-L-T-C-P-T-D-C [SEQ ID NO: 57],AMLVpp % inh,[1],20%
same,HCVpp % inh,[2],39%
P-Y-R-L-W-H-Y-P-C-T-V-N-F-T-I-F (PYRLWHYPCTVNFTIF; HCV peptide) [SEQ ID NO: 63],AMLVpp % inh,[1],3%
same,HCVpp % inh,[2],44%
C-N-C-S-I-Y-P-G-H-V-T-G-H-R-M-A [SEQ ID NO: 19],AMLVpp % inh,[1],26%
same,HCVpp % inh,[2],49%
T-T-T-I-R-R-H-V-D-L-L-V-G-A-A-A [SEQ ID NO: 12],AMLVpp % inh,[1],−5%
same,HCVpp % inh,[2],31%
F-A-Q-G-W-G-P-I-T-Y-N-E-S-H-S-S [SEQ ID NO: 42],AMLVpp % inh,[1],15%
same,HCVpp % inh,[2],49%
L-P-A-L-S-T-G-L-I-H-L-H-Q-N-V-V [SEQ ID NO: 73],AMLVpp % inh,[1],0%
same,HCVpp % inh,[2],19%
